# Measurements: patent US20100168146A1, “Composition Comprising (R)-Spiro[L-Azabicyclo[2.2.2]Octane-3,2'(3'H)-Furo[2,3-B]Pyridine (AZD0328) and its Use in the Treatment of Alzheimer's Disease, ADHD or Cognitive Dysfunction” (priority 2008, published 2010)
# “Also recorded” adds a separate entry of the source.
# What was measured:
# [1] = system: rhesus monkeys; test: Spatial delayed response (SDR) task; type: in vivo, rhesus monkey (macaca mulatta)
# Description: AZD0328 at low doses improved performance in the spatial delayed response test in monkeys. Rhesus monkeys were trained in a spatial delayed response task. In this task, food-motivated monkeys observed one of several spatially-displaced wells being baited with a food reward. After a brief delay during which a shutter is drawn and the wells are covered, the monkey must indicate the position of the baited well to receive the food reward. The performance of groups of monkeys was titrated into a narrow range by changing the number of wells or the duration of the delay. Monkeys were tested extensively to establish baseline performance before being administered drug or vehicle. Intramuscular administration of 0.00048 or 0.0016 mg/kg AZD0328 evoked a sustained increase in the percentage of correct responses monkeys made when compared with responses of vehicle-treated monkeys.
# Rhesus monkey were trained in a spatial delayed response task. Middle doses of AZD0328 (0.0016 and 0.00048 mg/kg im) evoked a sustained improvement in rhesus monkey performance, while a higher dose (0.48 mg/kg) and a lower dose (0.000016 mg/kg) transiently impaired performance of the task (Table 2).
# [2] = system: dog Purkinje fibre; test: Dog isolated cardiac Purkinje fibres, action potentials; details: stimulation 0.5 and 1 Hz
# Procedure: Effects of AZD0328 on cardiac action potentials were assessed in 4 dog Purkinje fibre preparations. (Table 3). The following action potential parameters were measured at the stimulation frequencies 0.5 and 1 Hz: action potential duration at 50% (APD50), 70% (APD70) and 90% (APD90) of repolarisation; the maximum velocity of the action potential upstroke (Vmax); the action potential amplitude (APA) and the resting membrane potential (RMP). At both stimulation frequencies, AZD0328 caused a concentration-dependent prolongation of APD50, APD70 and APD90, with significant effects at 5.6 μM and above. There was also an indication of proarrhythmic potential of the compound. A 10% increase in APD90 in the isolated dog Purkinje fibre is seen at concentrations between 5.6 and 16.8 μm.
# [3] = system: rats; test: Spontaneous locomotor activity; type: in vivo; details: Wistar rat, oral gavage, 90 min session
# Procedure: AZD0328 was investigated for possible effects on spontaneous locomotor activity in rats (n=6/group)(Table 3). Animals were individually placed in locomotor activity boxes for a 90 min test session. Movements within the box were measured by infrared beams, and activity was assessed as ambulatory counts, stereotypic counts, vertical counts, and resting time.
# [4] = system: guinea pigs; test: Cardiac repolarisation in anesthetised guinea pig (MAP); type: in vivo; details: highest dose, total plasma concentration 8.5 μM
# Procedure: Effects of AZD0328 on ventricular repolarisation and intracardiac conduction were investigated in 6 anesthetised and ventilated guinea pigs (Table 3). For the electrophysiological characterisation, monophasic action potentia MAP duration at 90% repolarisation (MAPD90), ventricular conduction velocity (MAP rise time), and atrioventricular (AV) conduction time were recorded during cardiac pacing. AZD0328 had dose-dependent effects on the electrophysiological activities in the guinea pig heart. At the highest dose, resulting in a total plasma concentration of 8.5 μM, MAPD90 and AV conduction time were prolonged by 20% and 13%, respectively. It is concluded that AZD0328 delayed ventricular repolarisation in the anesthetised guinea pig by 10% at a total plasma concentration of 2.4 μM.
# [5] = system: rats; test: Intestinal motility (charcoal meal test, glass bead test); type: in vivo; details: rat, oral
# Procedure: Effects of AZD0328 on small intestinal and colorectal motility were investigated in rats using the charcoal meal test and the glass bead test, respectively (Table 3). In the first part, evaluating intestinal transit, a test meal containing charcoal as a non-absorbable marker was administered to rats. In the second part, effects of oral administration of AZD0328 on colo-rectal transit time was evaluated.
# [6] = [14C]-AZD0328 QWBA / mass balance; type: in vivo, rat
# Procedure: In the mass balance study conducted in fed rats, a Tmax of 0.5 h to 1 h was observed following single and multiple oral doses (solution). The bioavailability of AZD0328 (total radioactivity) in this study was >90%. […] Generally speaking, the elimination was complete within the 24-hour interval at the dose levels tested.
# AZD0328 is a low protein binding molecule across species including human (<15%) across the concentration range 21.6 to 21,630 ng/mL (0.1 to 100 μM). In most species, the binding was concentration and gender independent. […] [^14C]-AZD0328-derived radioactivity was rapidly distributed to the organs and tissues with high levels of radioactivity associated with the contents of the GI tract and the major excretion organs, including kidney and liver. The radioactivity declined rapidly and by 168 h postdose radioactivity levels were not detectable in most tissues, with the exception of a few ocular tissues and nasal turbinates. […] Notable association of [^14C]-AZD0328-related radioactivity with the melanin-containing tissues was observed, with measurable radioactivity still present in the ocular tissue at 216 h postdate. [^14C]-AZD0328-derived radioactivity crossed the placenta.
# Pharmacokinetics and mass balance of [^14C]-AZD0328 were investigated in rats. The excretion of [^14C]-AZD0328-derived radioactivity in rats was mainly through the kidney. Over the course of the study, radioactivity recovered in urine and feces accounted for approximately 85% and 8%, respectively.
# [7] = system: human hepatocytes; test: Hepatocyte incubations (metabolites); type: in vitro ADME; details: four separate batches of human hepatocytes
# Procedure: Pyridinyl methylation of AZD0328 was a unique polar metabolite (M2) observed in dog hepatocytes. Other minor hydroxylation/oxidation and glucuronide conjugation products were detected in monkey, dog, rat, and guinea pig hepatocyte incubations and mini-pig hepatic microsome incubations. […] Analysis of plasma and urine samples from either orally or iv dosed rats confirmed N-oxide product of AZD0328 was a main product in the excretion and circulation. The percentage of AZD0328 N-oxide in the plasma from male rats was much higher than from females.
# [8] = system: Ames test; test: Ames test; type: cell-based
# Description: The genotoxic potential of AZD0328 has been evaluated in the Ames test and in the Mouse lymphoma test. AZD0328 was not mutagenic in either of these tests.
smiles,measurement,setting,value
"c1cnc2c(c1)C[C@@]1(CN3CCC1CC3)O2 [AZD0328, (R)-Spiro[1-azabicyclo[2.2.2]octane-3,2′(3′H)-furo[2,3-b]pyridine]]",Duration of improved performance after a single dose,[1]; four of nine monkeys improved at middle doses,more than one month
same,Lower doses with no effect or transient impairment,[1]; rhesus monkeys,≥ 0.16 µg/kg
same,Percent correct responses,"[1]; rhesus monkeys, 0.016 mg/kg",non-significant increase
same,"Concentration with significant prolongation of APD50, APD70 and APD90",[2],≥ 5.6 µM
same,Dose without effect on locomotor activity,[3],up to 129.8 mg/kg
same,AV conduction time prolongation,[4],13%
same,MAPD90 prolongation,[4],20%
same,Dose with inhibition of small- and large-intestinal motility,[5],≥ 130 µmol/kg
same,"Absorbed (urinary radioactivity and AUC, oral versus iv)",[6]; female rat,95%
same,"Absorbed (urinary radioactivity and AUC, oral versus iv)",[6]; male rat,97%
same,Radioactivity recovered in feces,[6]; rat,~8%
same,Radioactivity recovered in urine,[6]; rat,approximately 85%
same,Metabolites in hepatocyte incubations,[7],no metabolites were detected
same,Mutagenicity / genotoxicity,[8],not genotoxic; also recorded: not mutagenic
